In brackets after ≈: the same amount, converted by molar mass. Like-named read-outs stand apart in the source and are kept apart here.
Columns and labels:
[1] = Room temperature aqueous solubility with solubilizing agents (Example 36); assay type: physicochemical
Description: The room temperature aqueous solubility (mg/mL) of the a compound (4-{(S)-2-[(S)-2-methoxycarbonylamino)-3-phenylpropanamido]-2-[2-(thiophen-2-yl)thiazol-4-yl]ethyl}phenylsulfamic acid) in water, HPβCD, Poloxamer 407, and sulfobutylether-β-cyclodextrin, is provided in TABLE XXVII. Solubility in saline for the test compound is reduced presumably due to the common ion effect.
The solubility (mg/mL) of the test compound in mixtures of HPβCD and PEG400 is illustrated in TABLE XXVIII.

[2] = Chemical and physical stability of aqueous solution formulations (Table XXIX); assay type: physicochemical; conditions: for Concentration of test compound in aqueous solution formulation shown to be chemically and physically stable: chemically stable 1 month at 50 °C, physically stable at 5 °C, ambient, 50 °C
Experimental: TABLE XXIX contains aqueous solution formulations of the test compound above with the denoted solvents that have been prepared and shown to be chemically stable through 1 month at 50° C., and physically stable at 5° C., at ambient temperature, and at 50° C. […] The target pH range for the formulations is pH 7+/−0.5 pH units.

[3] = human, in vivo
Experimental: FIG. 9 depicts the mean plasma concentration over time after a single dose of a 5 mg, a 15 mg, a 22.5 mg, or a 30 mg of a test compound on day 14, respectively, in a multiple ascending dose study in patients with diabetic macular edema.
A phase 1B/2A open-label, Multiple-ascending dose cohort study to assess the pharmacokinetics and pharmacodynamics effect of 28-day repeat subcutaneous dose of 4-{(S)-2-[(S)-2-(methoxycarbonylamino)-3-phenylpropanamido]-2-[2-(thiophen-2-yl)thiazol-4-yl]ethyl}phenylsulfamic acid (drug) in subjects with diffuse diabetic macular edema (DME).
The aim of this study was to evaluate tolerability, safety, efficacy and pharmacokinetics and pharmacodynamics in patients with DME involving the center of the fovea with central subfield mean thickness ≧325 μm measured by spectral domain-optical coherence tomography (SD-OCT).
Twenty-four patients were administered ascending doses of test compound twice daily (BID) for 28 days in 4 separate cohorts at 5, 15, 22.5 or 30 mg BID, respectively.
Drug was supplied as a lyophilized powder in a vial for reconstitution. Each vial contained 100 mg drug and 250 mg HPβCD. Vials were reconstituted with sterile 5% dextrose for cohort 1 (5 mg BID) and with sterile diluent containing 5% HPβCD/1% dextrose for cohorts 2, 3, and 4 (15 mg, 22.5 mg and 30 mg BID).
For cohorts 1 (5 mg BID) and 2 (15 mg BID) the volume administered for each dose was 0.5 ml (10 and 30 mg/ml, respectively) and for cohorts 3 and 4 the volume was 0.75 ml (30 and 40 mg/ml, respectively).
Blood samples for pharmacokinetic profiling were taken pre-dose (0), 15 minutes, 1 hour, 2 hours, 3 hours and 4 hours after administration of the first dose on day 14.
Plasma drug concentration was determined with a validated LC/MS-MS method. The pharmacokinetic (PK) parameters were determined using a standard non-compartmental method, and Cmax, AUClast (with last being from time 0 to the last quantifiable point), AUCinf, were analyzed statistically using log-transformed data.

## COC(=O)N[C@@H](Cc1ccccc1)C(=O)N[C@@H](Cc1ccc(NS(=O)(=O)O)cc1)c1csc(-c2cccs2)n1 [test compound]
[1]
  solubility with either HPβCD or PEG400 individually: increase in solubility
[1]; 0% HPβCD, 15% PEG400
  Solubility: 30 mg/mL (≈ 51.1 mM)
[1]; 0% HPβCD, 30% PEG400
  Solubility: 68 mg/mL (≈ 116 mM)
[1]; 15% HPβCD, 0% PEG400
  Solubility: 59 mg/mL (≈ 101 mM)
[1]; 15% HPβCD, 5% PEG400
  Solubility: 57 mg/mL (≈ 97.2 mM)
[1]; 15% HPβCD, 10% PEG400
  Solubility: 34 mg/mL (≈ 57.9 mM)
[1]; 15% HPβCD, 15% PEG400
  Solubility: 6 mg/mL (≈ 10.2 mM)
[1]; room temperature, aqueous, 0% HPβCD (water)
  Solubility: 27 mg/mL (≈ 46 mM)
[1]; room temperature, aqueous, 10% HPβCD
  Solubility: 45 mg/mL (≈ 76.7 mM)
[1]; room temperature, aqueous, 15% SBE-β-CD
  Solubility: 44 mg/mL (≈ 75 mM)
[1]; room temperature, aqueous, 20% HPβCD
  Solubility: 57 mg/mL (≈ 97.2 mM)
[1]; room temperature, aqueous, 20% Poloxamer 407
  Solubility: 44 mg/mL (≈ 75 mM)
[1]; room temperature, aqueous, 30% HPβCD
  Solubility: 72 mg/mL (≈ 123 mM)
[1]; solubility inversely proportional to the amount of PEG400
  solubility on addition of PEG400 to a mixture with HPβCD: erosion of solubility
[2]; 4.5% mannitol, 5 mg/mL test compound, one week at room temperature and one week at 50 °C
  Physical and chemical stability of formulation: ^bPhysically and chemically stable through one week at room temperature and one week at 50 °C
[2]; 4.5% mannitol, one week at room temperature and one week at 50 °C
  Concentration of test compound in aqueous solution formulation shown to be stable: 5 mg/mL^b
[2]; 10% HPβCD
  Concentration of test compound in aqueous solution formulation shown to be chemically and physically stable: 15000 µg/mL
[2]; 15% HPβCD/0.25% saline, evaluated for short-term physical stability at 5 °C and ambient temperature
  Concentration of test compound in aqueous solution formulation evaluated for stability: 40 mg/mL^a
[2]; 25% HPβCD
  Concentration of test compound in aqueous solution formulation shown to be chemically and physically stable: 50000 µg/mL
[2]; 30% HPβCD
  Concentration of test compound in aqueous solution formulation shown to be chemically and physically stable: 50000 µg/mL
[3]
  overall exposures versus dose: approximately dose proportional
[3]; 5 mg
  AUCinf Geometric Mean: 102.92 ng·h/mL
  AUCinf Mean: 106.46 ng·h/mL
  AUCinf Median: 100.55 ng·h/mL
  AUCinf Min-Max: 70.1 to 155.1 ng·h/mL
  AUClast Geometric Mean: 98.63 ng·h/mL
  AUClast Mean: 101.56 ng·h/mL
  AUClast Median: 97.03 ng·h/mL
  AUClast Min-Max: 67.9 to 142.6 ng·h/mL
  Cmax Geometric Mean: 0.07448 µg/mL
  Cmax Mean: 0.07775 µg/mL
  Cmax Median: 0.07344 µg/mL
  Cmax Min-Max: 0.0447 to 0.1081 µg/mL
  t1/2 Mean (SD): 0.85 (0.186) hr
  t1/2 Median: 49.8 min
  t1/2 Min-Max: 36 to 66 min
  tmax Mean (SD): 0.31 (0.134) hr
  tmax Median: 15.6 min
  tmax Min-Max: 18 to 36 min
[3]; 15 mg
  AUCinf Geometric Mean: 245.89 ng·h/mL
  AUCinf Mean: 255.08 ng·h/mL
  AUCinf Median: 232.89 ng·h/mL
  AUCinf Min-Max: 176.8 to 387.4 ng·h/mL
  AUClast Geometric Mean: 230.97 ng·h/mL
  AUClast Mean: 239.08 ng·h/mL
  AUClast Median: 213.32 ng·h/mL
  AUClast Min-Max: 170.4 to 353.3 ng·h/mL
  Cmax Geometric Mean: 0.14986 µg/mL
  Cmax Mean: 0.15657 µg/mL
  Cmax Median: 0.13805 µg/mL
  Cmax Min-Max: 0.1025 to 0.2263 µg/mL
  t1/2 Mean (SD): 0.96 (0.282) hr
  t1/2 Median: 53.4 min
  t1/2 Min-Max: 36 to 84 min
  tmax Mean (SD): 0.27 (0.039) hr
  tmax Median: 15 min
  tmax Min-Max: 12 to 18 min
[3]; 22.5 mg
  AUCinf Geometric Mean: 454.63 ng·h/mL
  AUCinf Mean: 498.12 ng·h/mL
  AUCinf Median: 358.19 ng·h/mL
  AUCinf Min-Max: 322.4 to 813.8 ng·h/mL
  AUClast Geometric Mean: 400.80 ng·h/mL
  AUClast Mean: 437.51 ng·h/mL
  AUClast Median: 328.84 ng·h/mL
  AUClast Min-Max: 302.7 to 789.6 ng·h/mL
  Cmax Geometric Mean: 0.21572 µg/mL
  Cmax Mean: 0.2374 µg/mL
  Cmax Median: 0.2032 µg/mL
  Cmax Min-Max: 0.1427 to 0.4005 µg/mL
  t1/2 Mean (SD): 0.84 (0.093) hr
  t1/2 Median: 52.2 min
  t1/2 Min-Max: 42 to 54 min
  tmax Mean (SD): 0.45 (0.370) hr
  tmax Median: 16.2 min
  tmax Min-Max: 18 to 60 min
[3]; 30 mg
  AUCinf Geometric Mean: 824.87 ng·h/mL
  AUCinf Mean: 828.62 ng·h/mL
  AUCinf Median: 834.70 ng·h/mL
  AUCinf Min-Max: 729.7 to 921.4 ng·h/mL
  AUClast Geometric Mean: 657.33 ng·h/mL
  AUClast Mean: 669.37 ng·h/mL
  AUClast Median: 700.90 ng·h/mL
  AUClast Min-Max: 444.1 to 796.1 ng·h/mL
  Cmax Geometric Mean: 0.31424 µg/mL
  Cmax Mean: 0.32048 µg/mL
  Cmax Median: 0.32085 µg/mL
  Cmax Min-Max: 0.2209 to 0.4261 µg/mL
  t1/2 Mean (SD): 1.07 (0.338) hr
  t1/2 Median: 55.8 min
  t1/2 Min-Max: 48 to 90 min
  tmax Mean (SD): 0.63 (0.391) hr
  tmax Median: 38.4 min
  tmax Min-Max: 12 to 60 min
[3]; sc, 30 mg
  Tmax: 12 to 60 min
  elimination half-life: 36 to 90 min

Source: patent US9440963B2, “Compositions, formulations and methods for treating ocular diseases” (Aerpio Therapeutics Inc., priority 2013, dated 2016)
